Assay results reported in paper PMC4685510, “A Cell Biologist’s Field Guide to Aurora Kinase Inhibitors” (Frontiers in Oncology, 2015).
Read-outs that look alike come from different tables or passages of the source.

Tests used:
Assay in all cases: biochemical
Assay type in all cases: biochemical
[1] = target: T1, 363 human kinases (including Aurora A/B/C) (Homo sapiens, UniProt O15530); conditions: PDK1/PDPK1; for remaining activity at 0.1 µM: 100 nM; for remaining activity at 0.1 µM / remaining activity at 0.5 µM: read-out: % Enzyme Activity (relative to DMSO controls)
T1 sequence (O15530 1-556): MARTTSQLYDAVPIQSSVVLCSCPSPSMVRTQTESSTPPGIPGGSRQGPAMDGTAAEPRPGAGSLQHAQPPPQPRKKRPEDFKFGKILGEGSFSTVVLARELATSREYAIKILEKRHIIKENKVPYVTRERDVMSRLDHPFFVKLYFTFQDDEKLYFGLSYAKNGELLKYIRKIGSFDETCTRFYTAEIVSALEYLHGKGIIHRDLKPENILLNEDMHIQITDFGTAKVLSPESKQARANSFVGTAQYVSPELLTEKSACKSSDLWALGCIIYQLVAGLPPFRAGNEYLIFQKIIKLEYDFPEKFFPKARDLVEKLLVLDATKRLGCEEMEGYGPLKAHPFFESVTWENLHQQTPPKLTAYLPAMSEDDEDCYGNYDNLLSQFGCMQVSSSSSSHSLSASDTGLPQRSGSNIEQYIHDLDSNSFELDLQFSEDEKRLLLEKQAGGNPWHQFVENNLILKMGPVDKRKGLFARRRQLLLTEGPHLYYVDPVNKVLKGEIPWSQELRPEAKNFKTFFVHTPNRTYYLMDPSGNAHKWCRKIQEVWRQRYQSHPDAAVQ
Text: (§1) However, the Aurora A/B selectivity ratios derived from our in vitro and in vivo data can be compared to prioritize inhibitors.

[2] = target: T2, 363 human kinases (including Aurora A/B/C) (Homo sapiens, UniProt Q9H093); conditions: SNARK/NUAK2; for remaining activity at 0.1 µM: 100 nM; for remaining activity at 0.1 µM / remaining activity at 0.5 µM: read-out: % Enzyme Activity (relative to DMSO controls)
T2 sequence (Q9H093 1-628): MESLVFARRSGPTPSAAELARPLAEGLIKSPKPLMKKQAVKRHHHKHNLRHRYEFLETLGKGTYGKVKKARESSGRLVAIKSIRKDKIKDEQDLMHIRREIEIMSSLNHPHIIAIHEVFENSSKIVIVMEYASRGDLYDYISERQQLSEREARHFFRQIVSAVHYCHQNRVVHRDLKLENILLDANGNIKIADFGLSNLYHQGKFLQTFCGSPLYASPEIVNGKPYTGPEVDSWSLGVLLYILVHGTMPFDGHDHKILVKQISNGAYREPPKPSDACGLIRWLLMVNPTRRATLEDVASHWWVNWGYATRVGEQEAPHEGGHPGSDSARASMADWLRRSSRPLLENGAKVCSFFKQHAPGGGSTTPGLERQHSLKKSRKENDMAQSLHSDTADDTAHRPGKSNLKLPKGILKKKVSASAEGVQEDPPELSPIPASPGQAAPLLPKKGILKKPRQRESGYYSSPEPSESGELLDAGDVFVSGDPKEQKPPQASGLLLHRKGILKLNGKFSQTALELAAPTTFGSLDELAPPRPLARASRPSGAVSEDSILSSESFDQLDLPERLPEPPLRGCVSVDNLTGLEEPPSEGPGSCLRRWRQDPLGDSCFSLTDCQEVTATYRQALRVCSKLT
Text: as §1

[3] = target: 363 human kinases (including Aurora A/B/C) (Homo sapiens, UniProt Q9Y2H1); conditions: STK38L/NDR2; for remaining activity at 0.1 µM: 100 nM; for remaining activity at 0.1 µM / remaining activity at 0.5 µM: read-out: % Enzyme Activity (relative to DMSO controls)
363 human kinases (including Aurora A/B/C) (Homo sapiens, UniProt Q9Y2H1), sequence (Q9Y2H1 whole entry): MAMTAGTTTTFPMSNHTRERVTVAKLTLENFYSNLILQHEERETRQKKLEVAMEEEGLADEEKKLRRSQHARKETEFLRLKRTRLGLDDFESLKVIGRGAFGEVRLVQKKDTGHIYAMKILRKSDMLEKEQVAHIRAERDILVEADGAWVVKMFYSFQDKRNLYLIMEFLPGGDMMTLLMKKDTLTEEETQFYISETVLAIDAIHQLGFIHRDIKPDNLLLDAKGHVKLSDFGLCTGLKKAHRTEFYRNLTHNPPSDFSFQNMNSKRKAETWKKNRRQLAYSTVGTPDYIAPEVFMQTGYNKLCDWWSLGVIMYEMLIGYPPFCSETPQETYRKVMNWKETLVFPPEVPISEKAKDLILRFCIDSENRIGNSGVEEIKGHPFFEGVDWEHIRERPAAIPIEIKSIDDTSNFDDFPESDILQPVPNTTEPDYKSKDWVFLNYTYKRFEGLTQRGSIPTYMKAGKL
Text: as §1

[4] = target: 363 human kinases (including Aurora A/B/C) (Homo sapiens, UniProt Q15375); conditions: EPHA7, [ATP] 100 µM; for remaining activity at 0.1 µM: 100 nM; for remaining activity at 0.1 µM / remaining activity at 0.5 µM: read-out: % Enzyme Activity (relative to DMSO controls)
363 human kinases (including Aurora A/B/C) (Homo sapiens, UniProt Q15375), sequence (Q15375 28-998): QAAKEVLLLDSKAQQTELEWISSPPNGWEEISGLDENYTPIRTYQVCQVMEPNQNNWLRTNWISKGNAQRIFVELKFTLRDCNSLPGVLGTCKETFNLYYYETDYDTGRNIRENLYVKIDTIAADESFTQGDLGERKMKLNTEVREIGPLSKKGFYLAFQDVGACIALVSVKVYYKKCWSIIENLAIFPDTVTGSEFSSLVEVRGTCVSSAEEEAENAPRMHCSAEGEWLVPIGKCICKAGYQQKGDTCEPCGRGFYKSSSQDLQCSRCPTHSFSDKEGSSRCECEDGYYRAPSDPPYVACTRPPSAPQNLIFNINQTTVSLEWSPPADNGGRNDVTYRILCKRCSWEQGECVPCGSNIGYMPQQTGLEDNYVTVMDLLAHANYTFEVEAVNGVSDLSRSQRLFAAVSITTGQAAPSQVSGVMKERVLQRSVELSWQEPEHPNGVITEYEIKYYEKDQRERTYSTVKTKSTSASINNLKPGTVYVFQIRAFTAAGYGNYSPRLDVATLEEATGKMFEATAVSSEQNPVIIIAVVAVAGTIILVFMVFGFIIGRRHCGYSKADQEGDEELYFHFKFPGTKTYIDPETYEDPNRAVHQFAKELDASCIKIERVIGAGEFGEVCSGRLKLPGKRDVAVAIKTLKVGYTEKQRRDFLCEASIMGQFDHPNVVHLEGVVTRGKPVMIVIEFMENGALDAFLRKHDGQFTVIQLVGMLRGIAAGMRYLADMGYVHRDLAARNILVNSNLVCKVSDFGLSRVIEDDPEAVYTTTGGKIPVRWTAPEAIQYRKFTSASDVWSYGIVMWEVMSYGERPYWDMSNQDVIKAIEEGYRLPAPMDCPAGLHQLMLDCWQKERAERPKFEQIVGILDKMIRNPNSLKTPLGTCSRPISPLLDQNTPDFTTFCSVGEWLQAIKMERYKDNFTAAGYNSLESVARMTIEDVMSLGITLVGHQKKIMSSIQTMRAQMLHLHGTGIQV
Text: as §1

[5] = target: 363 human kinases (including Aurora A/B/C) (Homo sapiens, UniProt Q9P289); conditions: MST4; for remaining activity at 0.1 µM: 100 nM; for remaining activity at 0.1 µM / remaining activity at 0.5 µM: read-out: % Enzyme Activity (relative to DMSO controls)
363 human kinases (including Aurora A/B/C) (Homo sapiens, UniProt Q9P289), sequence (Q9P289 whole entry): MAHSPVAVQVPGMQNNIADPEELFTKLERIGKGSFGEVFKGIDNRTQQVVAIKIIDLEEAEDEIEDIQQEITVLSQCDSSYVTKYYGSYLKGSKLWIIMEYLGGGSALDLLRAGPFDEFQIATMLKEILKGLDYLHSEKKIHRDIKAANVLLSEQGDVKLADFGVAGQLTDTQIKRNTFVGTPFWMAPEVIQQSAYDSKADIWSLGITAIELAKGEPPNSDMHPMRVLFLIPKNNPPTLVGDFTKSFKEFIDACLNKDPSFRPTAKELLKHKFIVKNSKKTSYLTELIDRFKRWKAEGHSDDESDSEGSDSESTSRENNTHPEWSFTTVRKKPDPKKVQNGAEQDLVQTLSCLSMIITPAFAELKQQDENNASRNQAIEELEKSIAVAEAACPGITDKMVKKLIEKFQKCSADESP
Text: as §1

[6] = target: 363 human kinases (including Aurora A/B/C) (Homo sapiens, UniProt P11802); conditions: for remaining activity at 0.1 µM: 100 nM; for remaining activity at 0.1 µM / remaining activity at 0.5 µM: read-out: % Enzyme Activity (relative to DMSO controls); for remaining activity at 0.5 µM / % Enzyme Activity (relative to DMSO controls): 500 nM
363 human kinases (including Aurora A/B/C) (Homo sapiens, UniProt P11802), sequence (P11802 whole entry): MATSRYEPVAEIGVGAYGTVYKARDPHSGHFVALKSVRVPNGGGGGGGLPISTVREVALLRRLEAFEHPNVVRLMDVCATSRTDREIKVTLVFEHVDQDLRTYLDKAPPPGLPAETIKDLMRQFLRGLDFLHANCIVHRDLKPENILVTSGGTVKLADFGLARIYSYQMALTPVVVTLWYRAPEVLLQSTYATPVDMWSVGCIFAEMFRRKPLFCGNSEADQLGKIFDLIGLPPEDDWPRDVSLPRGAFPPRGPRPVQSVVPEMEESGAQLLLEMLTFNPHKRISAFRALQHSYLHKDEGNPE
Text: as §1

[7] = target: 363 human kinases (including Aurora A/B/C) (Homo sapiens, UniProt P49137); conditions: MAPKAPK2; for remaining activity at 0.1 µM: 100 nM; for remaining activity at 0.1 µM / remaining activity at 0.5 µM: read-out: % Enzyme Activity (relative to DMSO controls)
363 human kinases (including Aurora A/B/C) (Homo sapiens, UniProt P49137), sequence (P49137 whole entry): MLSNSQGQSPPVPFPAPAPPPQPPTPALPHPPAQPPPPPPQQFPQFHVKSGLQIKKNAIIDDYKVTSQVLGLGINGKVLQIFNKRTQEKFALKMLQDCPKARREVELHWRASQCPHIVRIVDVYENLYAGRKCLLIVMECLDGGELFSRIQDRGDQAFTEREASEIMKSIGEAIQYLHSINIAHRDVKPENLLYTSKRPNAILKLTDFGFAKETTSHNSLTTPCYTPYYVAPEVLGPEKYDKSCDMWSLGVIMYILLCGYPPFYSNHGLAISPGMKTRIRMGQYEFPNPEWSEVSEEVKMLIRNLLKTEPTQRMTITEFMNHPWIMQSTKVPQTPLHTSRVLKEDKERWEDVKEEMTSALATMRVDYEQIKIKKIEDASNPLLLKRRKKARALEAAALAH
Text: as §1

[8] = target: 363 human kinases (including Aurora A/B/C) (Homo sapiens, UniProt P06239); conditions: LCK; for remaining activity at 0.1 µM: 100 nM; for remaining activity at 0.1 µM / remaining activity at 0.5 µM: read-out: % Enzyme Activity (relative to DMSO controls)
363 human kinases (including Aurora A/B/C) (Homo sapiens, UniProt P06239), sequence (P06239 whole entry): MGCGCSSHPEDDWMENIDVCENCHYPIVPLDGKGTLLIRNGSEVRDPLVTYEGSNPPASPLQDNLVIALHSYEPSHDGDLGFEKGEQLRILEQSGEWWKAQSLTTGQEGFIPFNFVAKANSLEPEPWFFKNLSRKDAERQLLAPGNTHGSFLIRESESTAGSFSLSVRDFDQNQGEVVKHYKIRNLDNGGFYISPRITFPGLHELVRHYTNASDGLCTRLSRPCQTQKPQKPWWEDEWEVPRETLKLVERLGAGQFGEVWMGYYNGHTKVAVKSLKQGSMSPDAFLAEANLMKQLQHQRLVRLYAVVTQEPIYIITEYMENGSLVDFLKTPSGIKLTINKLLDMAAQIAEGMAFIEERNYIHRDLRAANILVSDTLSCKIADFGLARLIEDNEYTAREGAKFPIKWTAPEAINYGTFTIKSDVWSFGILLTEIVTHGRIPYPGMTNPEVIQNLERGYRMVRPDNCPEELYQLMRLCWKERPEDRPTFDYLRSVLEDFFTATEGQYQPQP
Text: as §1

[9] = target: 363 human kinases (including Aurora A/B/C) (Homo sapiens, UniProt P23458); conditions: JAK1; for remaining activity at 0.1 µM: 100 nM; for remaining activity at 0.1 µM / remaining activity at 0.5 µM: read-out: % Enzyme Activity (relative to DMSO controls)
Text: as §1

[10] = target: 363 human kinases (including Aurora A/B/C) (Homo sapiens, UniProt Q15746); conditions: MLCK/MYLK; for remaining activity at 0.1 µM: 100 nM; for remaining activity at 0.1 µM / remaining activity at 0.5 µM: read-out: % Enzyme Activity (relative to DMSO controls)
363 human kinases (including Aurora A/B/C) (Homo sapiens, UniProt Q15746), sequence (Q15746 whole entry): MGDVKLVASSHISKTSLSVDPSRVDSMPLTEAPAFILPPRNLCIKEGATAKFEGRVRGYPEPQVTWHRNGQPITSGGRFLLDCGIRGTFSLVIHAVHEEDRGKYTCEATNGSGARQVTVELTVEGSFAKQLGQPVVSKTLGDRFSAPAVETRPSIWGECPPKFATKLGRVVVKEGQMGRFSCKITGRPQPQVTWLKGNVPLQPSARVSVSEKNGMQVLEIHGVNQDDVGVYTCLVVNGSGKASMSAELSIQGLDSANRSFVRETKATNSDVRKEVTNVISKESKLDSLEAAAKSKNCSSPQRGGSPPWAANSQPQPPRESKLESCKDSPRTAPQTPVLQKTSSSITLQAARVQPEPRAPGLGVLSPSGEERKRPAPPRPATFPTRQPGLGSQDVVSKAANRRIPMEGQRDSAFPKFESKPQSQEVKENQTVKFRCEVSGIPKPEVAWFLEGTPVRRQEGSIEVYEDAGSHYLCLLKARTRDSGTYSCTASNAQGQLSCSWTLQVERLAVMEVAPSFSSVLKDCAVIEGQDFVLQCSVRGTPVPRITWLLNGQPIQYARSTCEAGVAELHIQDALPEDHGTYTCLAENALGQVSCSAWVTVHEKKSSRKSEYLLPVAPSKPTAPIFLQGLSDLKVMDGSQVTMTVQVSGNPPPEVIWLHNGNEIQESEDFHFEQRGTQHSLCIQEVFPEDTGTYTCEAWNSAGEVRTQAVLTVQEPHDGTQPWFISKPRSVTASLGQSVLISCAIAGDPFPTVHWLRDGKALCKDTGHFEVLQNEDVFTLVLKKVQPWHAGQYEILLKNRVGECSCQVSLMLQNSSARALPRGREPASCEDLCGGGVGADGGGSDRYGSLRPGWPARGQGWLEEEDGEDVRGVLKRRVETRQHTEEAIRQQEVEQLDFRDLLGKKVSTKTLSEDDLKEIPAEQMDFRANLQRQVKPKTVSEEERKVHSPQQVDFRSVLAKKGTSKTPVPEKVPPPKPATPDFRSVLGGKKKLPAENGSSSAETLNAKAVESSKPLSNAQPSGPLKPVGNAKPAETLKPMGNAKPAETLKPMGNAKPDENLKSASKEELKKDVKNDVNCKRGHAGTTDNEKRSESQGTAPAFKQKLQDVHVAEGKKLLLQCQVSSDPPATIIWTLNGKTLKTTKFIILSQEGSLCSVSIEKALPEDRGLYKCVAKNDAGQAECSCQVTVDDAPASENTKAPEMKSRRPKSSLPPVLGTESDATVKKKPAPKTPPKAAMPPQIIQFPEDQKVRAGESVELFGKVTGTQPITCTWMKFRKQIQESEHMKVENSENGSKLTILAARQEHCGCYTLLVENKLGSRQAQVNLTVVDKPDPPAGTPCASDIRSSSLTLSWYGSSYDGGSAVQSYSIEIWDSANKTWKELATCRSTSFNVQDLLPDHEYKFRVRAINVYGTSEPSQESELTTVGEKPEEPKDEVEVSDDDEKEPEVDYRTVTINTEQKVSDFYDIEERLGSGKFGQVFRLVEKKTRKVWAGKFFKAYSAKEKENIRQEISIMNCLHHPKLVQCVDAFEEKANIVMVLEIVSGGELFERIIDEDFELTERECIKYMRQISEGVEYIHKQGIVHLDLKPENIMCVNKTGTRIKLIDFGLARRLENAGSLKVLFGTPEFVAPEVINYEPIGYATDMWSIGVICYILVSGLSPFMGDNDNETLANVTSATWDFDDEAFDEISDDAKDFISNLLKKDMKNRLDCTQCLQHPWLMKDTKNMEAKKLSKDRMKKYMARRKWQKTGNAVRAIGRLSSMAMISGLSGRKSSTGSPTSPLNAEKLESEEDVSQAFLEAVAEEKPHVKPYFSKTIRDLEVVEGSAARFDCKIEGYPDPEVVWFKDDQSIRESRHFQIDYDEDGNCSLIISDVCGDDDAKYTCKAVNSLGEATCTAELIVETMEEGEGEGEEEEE
Text: as §1

Structure (SMILES): CCn1cc(-c2ccnc3[nH]c(-c4cccc(CN(C)C)c4)cc23)c(-c2ccc(NC(=O)N(C)C)cc2)n1 [GSK1070916]
- remaining activity at 0.1 µM [1]: 94%
- remaining activity at 0.1 µM [2]: 88.7%
- remaining activity at 0.1 µM [3]: 95.7%
- remaining activity at 0.1 µM [4]: 89%
- remaining activity at 0.1 µM [5]: 76.4%
- remaining activity at 0.1 µM ([6]; CDK4/cyclin D1, [ATP] 30 µM): 97.5%
- remaining activity at 0.1 µM ([6]; CDK4/cyclin D3, [ATP] 15 µM): 95.6%
- remaining activity at 0.1 µM [7]: 95.6%
- remaining activity at 0.1 µM [8]: 72.8%
- remaining activity at 0.1 µM [9]: 95.8%
- remaining activity at 0.1 µM [10]: 96.9%

Structure (SMILES): O=C(O)[C@]1(Cc2cccc(Nc3nccs3)n2)CC[C@@H](Oc2cccc(Cl)c2F)CC1 [MK-5108]
- remaining activity at 0.1 µM [1]: 98.7%
- remaining activity at 0.5 µM ([1]; 500 nM): 88.8%
- remaining activity at 0.1 µM [2]: 104%
- remaining activity at 0.5 µM ([2]; 500 nM): 70.8%
- remaining activity at 0.1 µM [3]: 99.6%
- remaining activity at 0.5 µM ([3]; 500 nM): 97.8%
- remaining activity at 0.1 µM [4]: 35.6%
- remaining activity at 0.5 µM ([4]; 500 nM): 9.76%
- remaining activity at 0.1 µM [5]: 84%
- remaining activity at 0.5 µM ([5]; 500 nM): 81.5%
- remaining activity at 0.1 µM ([6]; CDK4/cyclin D1, [ATP] 30 µM): 96.4%
- remaining activity at 0.5 µM ([6]; CDK4/cyclin D1, [ATP] 30 µM): 96.1%
- remaining activity at 0.1 µM ([6]; CDK4/cyclin D3, [ATP] 15 µM): 99%
- remaining activity at 0.5 µM ([6]; CDK4/cyclin D3, [ATP] 15 µM): 98.8%
- remaining activity at 0.1 µM [7]: 102%
- remaining activity at 0.5 µM ([7]; 500 nM): 100%
- remaining activity at 0.1 µM [8]: 62.3%
- remaining activity at 0.5 µM ([8]; 500 nM): 16.6%
- remaining activity at 0.1 µM [9]: 99.4%
- remaining activity at 0.5 µM ([9]; 500 nM): 61.6%
- remaining activity at 0.1 µM [10]: 89.1%
- remaining activity at 0.5 µM ([10]; 500 nM): 73.5%

Structure (SMILES): O=C(c1cccc(Cl)c1F)N1CCN(Cc2cccc(Nc3nccs3)n2)CC1 [MK-8745]
- % Enzyme Activity (relative to DMSO controls) ([1]; 500 nM): 93.63%
- remaining activity at 0.5 µM ([1]; 500 nM): 94.7%
- % Enzyme Activity (relative to DMSO controls) ([2]; 500 nM): 85.75%
- remaining activity at 0.5 µM ([2]; 500 nM): 88.1%
- % Enzyme Activity (relative to DMSO controls) ([3]; 500 nM): 96.64%
- remaining activity at 0.5 µM ([3]; 500 nM): 98.4%
- % Enzyme Activity (relative to DMSO controls) ([4]; 500 nM): 62.14%
- remaining activity at 0.5 µM ([4]; 500 nM): 63.1%
- % Enzyme Activity (relative to DMSO controls) ([5]; 500 nM): 78.55%
- remaining activity at 0.5 µM ([5]; 500 nM): 87.2%
- % Enzyme Activity (relative to DMSO controls) ([6]; CDK4/cyclin D1, [ATP] 30 µM): 96.49%
- remaining activity at 0.5 µM ([6]; CDK4/cyclin D1, [ATP] 30 µM): 97.2%
- % Enzyme Activity (relative to DMSO controls) ([6]; CDK4/cyclin D3, [ATP] 15 µM): 93.01%
- remaining activity at 0.5 µM ([6]; CDK4/cyclin D3, [ATP] 15 µM): 93.1%
- % Enzyme Activity (relative to DMSO controls) ([7]; 500 nM): 92.28%
- remaining activity at 0.5 µM ([7]; 500 nM): 92.9%
- % Enzyme Activity (relative to DMSO controls) ([8]; 500 nM): 50.49%
- remaining activity at 0.5 µM ([8]; 500 nM): 53%
- % Enzyme Activity (relative to DMSO controls) ([9]; 500 nM): 103.50%
- remaining activity at 0.5 µM ([9]; 500 nM): 104%
- % Enzyme Activity (relative to DMSO controls) ([10]; 500 nM): 89.65%
- remaining activity at 0.5 µM ([10]; 500 nM): 90.7%
